Measured values from patent US20230107642A1 (Erasca, Inc., priority 2020, published 2023).

These compounds were tested against T1, Cys12 of the KRAS 4B G12C protein (Homo sapiens, UniProt P01116, G12C) (assay: In vitro covalent adduct formation (CAF) assay, LC-MS intact mass). Conditions: 10 uM compound, 60 min.
T1 construct: This protein contained 188 amino acids in total, including an N-terminal 6-Histidine tag; made in house; host or cells: E. coli BL21
Assay type: binding
Experimental: This Example provides a protocol for assessing covalent adduct formation (CAF) between the compounds of the present application and KRAS.
In vitro covalent adduct formation assay: Covalent adduct formation (CAF) reactions between Cys12 of the KRAS 4B G12C protein and some of the compounds of Tables 1 to 4 were measured in vitro using liquid chromatography-mass spectrometry (LC-MS).
Recombinant Human KRAS 4B protein containing the G12C mutation was used in compound screening experiments. This protein contained 188 amino acids in total, including an N-terminal 6-Histidine tag, followed by a Tobacco Etch Virus (TEV) tag, followed by residues 1-169 of the native KRAS 4B sequence. The exact mass of the protein was 21,310 Da as determined by mass spectrometry. The full amino acid sequence is shown below: […]
The recombinant protein was expressed in E. coli BL21 cells and purified using affinity chromatography via a Ni-NTA column. Protein stocks were nucleotide-exchanged to >95% GDP, concentrated to 4 mg/mL, and stored at −80° C. in storage buffer (50 mM HEPES pH 7.4, 50 mM NaCl, 5 mM MgCl2, 1 mM DTT). Pure KRAS 4B G12C protein was diluted to a concentration of 5 μM in Tris Buffered Saline, pH 7.4. The compounds were dissolved in DMSO and added to the diluted protein to make a 10 μM concentration. The total DMSO concentration in the reaction was 4%. The reaction was mixed by pipetting and incubated at 22° C. for one hour. Aliquots of the reaction were taken over time and diluted 2:1 in 0.1% formic acid. The intact mass of the protein samples was measured by LC-MS using a QExactive+ mass spectrometer (Thermo Scientific). An amount of 500 ng total protein was injected onto a C8 reverse phase column, eluted with a seven-minute gradient of 30%-90% acetonitrile/0.1% formic acid, and analyzed for intact mass by the mass spectrometer. Adducts identified were confirmed to be within 1 Dalton of the expected mass, and the relative ratios of free:adduct protein were used to quantify the percentage of protein bound by the compound. CAF reactions were run in duplicate, with a typical variability of ±5%.

% CAF 10 uM @ 60 min [%]	Structure (SMILES)
94.4	C=CC(=O)N1[C@H](C)CN(c2nc(=O)n3c4c(c(-c5cc(Cl)c(F)cc5F)c(C(F)(F)F)cc24)SC[C@@H]3COCOC)C[C@@H]1C (atropisomer, axis not shown) [Example 1370, (3S,10R)-7-((3S,5R)-4-acryloyl-3,5-dimethylpiperazin-1-yl)-10-(5-chloro-2,4-difluorophenyl)-3-((methoxymethoxy)methyl)-9-(trifluoromethyl)-2,3-dihydro-5H-[1,4]thiazino[2,3,4-ij]quinazolin-5-one]
69.2	C=CC(=O)N1C[C@H](C)N(c2nc(=O)n3c4c(c(-c5cc(C=O)c(F)cc5F)c(C(F)(F)F)cc24)SCC2(COC2)C3)C[C@H]1C [Example 1425, 5-(8′-((2S,5R)-4-acryloyl-2,5-dimethylpiperazin-1-yl)-6′-oxo-10′-(trifluoromethyl)-2′H,4′H,6′H-spiro[oxetane-3,3′-[1,4]thiazepino[2,3,4-ij]quinazolin]-11′-yl)-2,4-difluorobenzaldehyde]
92	C=CC(=O)N1C[C@H](C)N(c2nc(=O)n3c4c(c(-c5cc(O)c(F)cc5F)c(C(F)(F)F)cc24)SCC2(COC2)C3)C[C@H]1C [Example 1454, 8′-((2S,5R)-4-acryloyl-2,5-dimethylpiperazin-1-yl)-11′-(2,4-difluoro-5-hydroxyphenyl)-10′-(trifluoromethyl)-2′H,4′H,6′H-spiro[oxetane-3,3′-[1,4]thiazepino[2,3,4-ij]quinazolin]-6′-one]
90.1	C=CC(=O)N1[C@H](C)CN(c2nc(=O)n3c4c(c(-c5ccc(F)cc5)c(C(F)(F)F)cc24)SC[C@@H]3COCC)C[C@@H]1C [Example 1415, (S)-7-((3S,5R)-4-acryloyl-3,5-dimethylpiperazin-1-yl)-3-(ethoxymethyl)-10-(4-fluorophenyl)-9-(trifluoromethyl)-2,3-dihydro-5H-[1,4]thiazino[2,3,4-ij]quinazolin-5-one]
71.4	C=CC(=O)N1[C@H](C)CN(c2nc(=O)n3c4c(c(-c5cc(Cl)c(F)cc5F)c(C(F)(F)F)cc24)SCC2(COC2)C3)C[C@@H]1C (atropisomer, axis not shown) [Example 1361b]
96.7	C=CC(=O)N1CCN(c2nc(=O)n3c4c(c(-c5ccc(F)cc5F)c(C(F)(F)F)cc24)SC[C@@H]3CN2CCN(C3CC3)CC2)CC1 (atropisomer, axis not shown) [Example 1390, (3S,10R)-7-(4-acryloylpiperazin-1-yl)-3-((4-cyclopropylpiperazin-1-yl)methyl)-10-(2,4-difluorophenyl)-9-(trifluoromethyl)-2,3-dihydro-5H-[1,4]thiazino[2,3,4-ij]quinazolin-5-one]
77.2	C=CC(=O)N1[C@H](C)CN(c2nc(=O)n3c4c(c(-c5ccc(F)c(Cl)c5)c(C(F)(F)F)cc24)SC[C@@H]3CN2CCN(C3CC3)CC2)C[C@@H]1C [Example 1372, (S)-7-((3S,5R)-4-acryloyl-3,5-dimethylpiperazin-1-yl)-10-(3-chloro-4-fluorophenyl)-3-((4-cyclopropylpiperazin-1-yl)methyl)-9-(trifluoromethyl)-2,3-dihydro-5H-[1,4]thiazino[2,3,4-ij]quinazolin-5-one]
75.9	C=CC(=O)N1[C@H](C)CN(c2nc(=O)n3c4c(c(-c5c(F)ccc6cnn(C)c56)c(C(F)(F)F)cc24)SC[C@@H]3COC)C[C@@H]1C (atropisomer, axis not shown) [Example 1406, (3S,10R)-7-((3S,5R)-4-acryloyl-3,5-dimethylpiperazin-1-yl)-10-(6-fluoro-1-methyl-1H-indazol-7-yl)-3-(methoxymethyl)-9-(trifluoromethyl)-2,3-dihydro-5H-[1,4]thiazino[2,3,4-ij]quinazolin-5-one]
49.1	C=CC(=O)N1C[C@H](C)N(c2nc(=O)n3c4c(c(-c5cccc6cnn(C)c56)c(C(F)(F)F)cc24)SC[C@@H]3CN2CCN(CC)CC2)C[C@H]1C (atropisomer, axis not shown) [Example 1382, (3S,10S)-7-((2S,5R)-4-acryloyl-2,5-dimethylpiperazin-1-yl)-3-((4-ethylpiperazin-1-yl)methyl)-10-(1-methyl-1H-indazol-7-yl)-9-(trifluoromethyl)-2,3-dihydro-5H-[1,4]thiazino[2,3,4-ij]quinazolin-5-one]

Same assay, conditions: 10 uM compound, 60 min incubation

% CAF 10 uM @ 60 min [%]	Structure (SMILES)
95.4	C=CC(=O)N1C[C@H](C)N(c2nc(=O)n3c4c(c(-c5ccc(F)cc5)c(C(F)(F)F)cc24)SCC2(COC2)C3)C[C@H]1C [Example 1111, 8′-((2S,5R)-4-acryloyl-2,5-dimethylpiperazin-1-yl)-11′-(4-fluorophenyl)-10′-(trifluoromethyl)-2′H,4′H,6′H-spiro[oxetane-3,3′-[1,4]thiazepino [2,3,4-ij]quinazolin]-6′-one]
98	C=CC(=O)N1[C@H](C)CN(c2nc(=O)n3c4c(c(-c5ccc(F)cc5)c(C(F)(F)F)cc24)SC[C@@H]3COC)C[C@@H]1C [Example 1103, (S)-7-((3S,5R)-4-acryloyl-3,5-dimethylpiperazin-1-yl)-10-(4-fluorophenyl)-3-(methoxymethyl)-9-(trifluoromethyl)-2,3-dihydro-5H-[1,4]thiazino[2,3,4-ij]quinazolin-5-one]

Same assay, conditions: 10 μM compound, after 1 hour

CAF (% after 1 hour) [%]	Structure (SMILES)
64	C=C(F)C(=O)N1CCN(c2nc(=O)n3c4c(c(-c5cc(Cl)c(F)cc5F)c(C(F)(F)F)cc24)SC[C@@H](OC)C3)CC1 [Example 1219, (3S)-11-(5-Chloro-2,4-difluorophenyl)-8-(4-(2-fluoroacryloyl)piperazin-1-yl)-3-methoxy-10-(trifluoromethyl)-3,4-dihydro-2H,6H-[1,4]thiazepino[2,3,4-ij]quinazolin-6-one]
96	C=CC(=O)N1[C@H](C)CN(c2nc(=O)n3c4c(c(-c5ccc(F)cc5)c(C(F)(F)F)cc24)SC[C@@H](NS(C)(=O)=O)C3)C[C@@H]1C [Example 1224, N—((S)-8-((3S,5R)-4-Acryloyl-3,5-dimethylpiperazin-1-yl)-11-(4-fluorophenyl)-6-oxo-10-(trifluoromethyl)-3,4-dihydro-2H,6H-[1,4]thiazepino[2,3,4-ij]quinazolin-3-yl)methanesulfonamide]
92	C=CC(=O)N1[C@H](C)CN(c2nc(=O)n3c4c(c(-c5cc(Cl)c(F)cc5F)c(C(F)(F)F)cc24)SC[C@@H](OCC)C3)C[C@@H]1C [Example 1206, (3S)-8-((3S,5R)-4-acryloyl-3,5-dimethylpiperazin-1-yl)-11-(5-chloro-2,4-difluorophenyl)-3-ethoxy-10-(trifluoromethyl)-3,4-dihydro-2H,6H-[1,4]thiazepino[2,3,4-ij]quinazolin-6-one]

Structure (SMILES)	CAF (% after 1 hour) [%]
O=C1CC2CN(c3nc(=O)n4c5c(c(-c6ccc(F)cc6F)c(C(F)(F)F)cc35)SCCC4)CC(C1)N2C(=O)/C=C/CF [Example 1200, (E)-11-(2,4-difluorophenyl)-8-(9-(4-fluorobut-2-enoyl)-7-oxo-3,9-diazabicyclo[3.3.1]nonan-3-yl)-10-(trifluoromethyl)-3,4-dihydro-2H,6H-[1,4]thiazepino[2,3,4-ij]quinazolin-6-one]	73

Same assay, conditions: after 60 min

CAF (% binding after 60 min) [%]	Structure (SMILES)
97	C=CC(=O)N1CCN(c2nc(=O)n3c4c(c(-c5ccc(F)cc5F)c(C(F)(F)F)cc24)SC[C@@H](OCCOC)C3)CC1 [Example 1019, (3S)-8-(4-acryloylpiperazin-1-yl)-11-(2,4-difluorophenyl)-3-(2-methoxyethoxy)-10-(trifluoromethyl)-3,4-dihydro-2H,6H-[1,4]thiazepino[2,3,4-ij]quinazolin-6-one]
97	C=CC(=O)N1CCN(c2nc(=O)n3c4c(c(-c5cc(Cl)c(F)cc5F)c(C(F)(F)F)cc24)SC[C@@H](OCCOC)C3)CC1 [Example 1023, (3S)-8-(4-acryloylpiperazin-1-yl)-11-(5-chloro-2,4-difluorophenyl)-3-(2-methoxyethoxy)-10-(trifluoromethyl)-3,4-dihydro-2H,6H-[1,4]thiazepino[2,3,4-ij]quinazolin-6-one]
84	C=CC(=O)N1[C@H](C)CN(c2nc(=O)n3c4c(c(-c5ccc(F)cc5F)c(C(F)(F)F)cc24)SC[C@H](N(C)C)C3)C[C@@H]1C [Example 1001, (3R)-8-((3S,5R)-4-acryloyl-3,5-dimethylpiperazin-1-yl)-11-(2,4-difluorophenyl)-3-(dimethylamino)-10-(trifluoromethyl)-3,4-dihydro-2H,6H-[1,4]thiazepino[2,3,4-ij]quinazolin-6-one]
